{"source": "EPA's ToxValDB 9.5", "tested_on": "Rattus norvegicus", "conditions": "for LD50 / LC50: acute", "key": {"[1]": {"conditions": "reproduction developmental, oral, gavage, Wistar"}}, "note": "“And” between values parts separate entries of the source, which are not always exact repeats. Equal entries are not always repeated. Structures can show the parent of a compound that is named as a salt."}
{"smiles": "CSC(C)(C)/C=N/O", "note": "[Aldicarb oxime]", "values": [{"measurement": "LD50", "setting": "oral, Wistar", "value": 809, "unit": "mg/kg"}, {"measurement": "LOAEL", "setting": "[1]", "value": 25, "unit": "mg/kg-day"}, {"measurement": "NOAEL", "setting": "[1]", "value": 5, "unit": "mg/kg-day"}]}
{"smiles": "COC(=O)C1C(C=C(Cl)Cl)C1(C)C", "note": "(stereo not given)", "values": [{"measurement": "LD50", "setting": "oral, gavage, Sprague-Dawley", "value": "> 5000", "unit": "mg/kg"}, {"measurement": "NOAEL", "setting": "reproduction developmental, duration: 28 days, oral, gavage, Sprague-Dawley", "value": 450, "unit": "mg/kg-day"}]}
{"smiles": "CC(=O)C(=NNc1ccc(-c2ccc(NN=C(C(C)=O)C(=O)Nc3ccc(C)cc3C)c(Cl)c2)cc1Cl)C(=O)Nc1ccc(C)cc1C", "note": "[C.I. Pigment Yellow 13]", "values": [{"measurement": "NOAEL", "setting": "chronic, oral, gavage", "value": 500, "unit": "mg/kg-day"}]}
{"smiles": "CC(C)CC(C)OC(=O)/C=C\\C(=O)OC(C)CC(C)C", "note": "(stereo not given) [Bis(1,3-dimethylbutyl) maleate]", "values": [{"measurement": "LD50", "setting": "oral, gavage, Wistar", "value": 7460, "unit": "mg/kg"}]}
{"smiles": "CCCCCCCCCCCOC(=O)c1ccccc1C(=O)OCCCCCCCCCCC", "note": "[Diundecyl phthalate]", "values": [{"measurement": "NOAEL", "setting": "short-term, duration: 21 days, oral, diet, Fischer 344", "value": 282, "unit": "mg/kg-day"}]}
{"smiles": "O=P(O)(O)c1ccccc1", "note": "[Phenylphosphonic acid]", "values": [{"measurement": "LD50", "setting": "dermal, occlusive, Crl:CD(SD) BR", "value": "> 2000", "unit": "mg/kg"}]}
{"smiles": "COC(=O)CC(C)(C)C(Cl)CC(Cl)(Cl)Cl", "note": "(stereo not given)", "values": [{"measurement": "LC50", "setting": "inhalation, Sprague-Dawley", "value": "> 66.6", "unit": "mg/m3"}, {"measurement": "LD50", "setting": "oral, Sprague-Dawley", "value": "> 5000", "unit": "mg/kg"}]}
{"smiles": "CCC(C)(C#N)N=NC(C)(C#N)CC", "note": "(stereo not given) [2,2'-Azobis(2-methylbutanenitrile)]", "values": [{"measurement": "LD50", "setting": "oral, Sprague-Dawley", "value": 337, "unit": "mg/kg"}]}
{"smiles": "CC(CC(=O)O)CC(C)(C)C", "note": "(stereo not given) [3,5,5-Trimethylhexanoic acid]", "values": [{"measurement": "NOAEL", "setting": "reproduction developmental, oral, diet, F, Sprague-Dawley", "value": 1200, "unit": "ppm"}, {"measurement": "NOAEL", "setting": "reproduction developmental, oral, diet, Sprague-Dawley, generation: F1", "value": 1200, "unit": "ppm"}]}
{"smiles": "CCCCCCC(C)OC(=O)CCCCC(=O)OC(C)CCCCCC", "note": "(stereo not given) [Hexanedioic acid, bis(1-methylheptyl) ester]", "values": [{"measurement": "LD50", "setting": "oral, gavage", "value": "> 64000", "unit": "mg/kg"}]}
{"smiles": "C1=C\\CC/C=C\\CC/1", "note": "[1,5-Cyclooctadiene]", "values": [{"measurement": "LD50", "setting": "dermal, occlusive, Crl:CD1", "value": "> 3520", "unit": "mg/kg"}, {"measurement": "LD50", "setting": "oral", "value": 2380, "unit": "mg/kg"}, {"measurement": "NOAEL", "setting": "short-term, duration: 2 weeks, inhalation, M", "value": 664, "unit": "mg/m3"}]}
{"smiles": "Clc1cc(Cl)c(Cl)nc1Cl", "note": "[2,3,5,6-Tetrachloropyridine]", "values": [{"measurement": "LD50", "setting": "oral", "value": "≥ 1180 mg/kg and ≤ 1410 mg/kg"}, {"measurement": "LD50", "setting": "oral, gavage", "value": 1000, "unit": "mg/kg"}, {"measurement": "NOAEL", "setting": "chronic, duration: 91 days, oral, diet, Sherman Wistar", "value": 100, "unit": "mg/kg-day"}, {"measurement": "NOAEL", "setting": "reproduction developmental, duration: 52 days, oral, gavage, F, Sprague-Dawley", "value": 25, "unit": "mg/kg-day"}, {"measurement": "NOAEL", "setting": "reproduction developmental, duration: 52 days, oral, gavage, M, Sprague-Dawley", "value": 150, "unit": "mg/kg-day"}, {"measurement": "NOAEL", "setting": "reproduction developmental, duration: 52 days, oral, gavage, Sprague-Dawley", "value": 150, "unit": "mg/kg-day"}, {"measurement": "NOAEL", "setting": "reproduction developmental, duration: 52 days, oral, gavage, Sprague-Dawley, generation: F1", "value": 150, "unit": "mg/kg-day"}, {"measurement": "NOAEL", "setting": "subchronic, duration: 52 days, oral, gavage, F, Sprague-Dawley", "value": 25, "unit": "mg/kg-day"}, {"measurement": "NOAEL", "setting": "subchronic, duration: 52 days, oral, gavage, M, Sprague-Dawley", "value": 150, "unit": "mg/kg-day"}]}
{"smiles": "CCCCCCCCCCCC#N", "note": "[n-Undecyl cyanide]", "values": [{"measurement": "LD50", "setting": "oral", "value": "> 3400", "unit": "mg/kg"}]}
{"smiles": "CCCCCCCCCCCCOCCOCCOS(=O)(=O)[O-].[Na+]", "note": "[Diethylene glycol monolauryl ether sulfate sodium salt]", "values": [{"measurement": "LD50", "setting": "oral, gavage, Sprague-Dawley", "value": "> 5000", "unit": "mg/kg"}]}
{"smiles": "CC=C(C)C", "note": "[2-Methyl-2-butene]", "values": [{"measurement": "NOAEL", "setting": "reproduction developmental, duration: 28 days, inhalation, Sprague-Dawley", "value": 1660, "unit": "mg/m3"}, {"measurement": "NOAEL", "setting": "reproduction developmental, inhalation, Sprague-Dawley", "value": 20100, "unit": "mg/m3"}]}
{"smiles": "Cc1cccc2[nH]c([S-])nc12.Cc1cccc2[nH]c([S-])nc12.[Zn+2]", "values": [{"measurement": "LD50", "setting": "dermal, semiocclusive, Sprague-Dawley", "value": "> 2000", "unit": "mg/kg"}, {"measurement": "LC50", "setting": "inhalation, Sprague-Dawley", "value": "> 2.03", "unit": "µg/mL"}, {"measurement": "LD50", "setting": "oral", "value": 800, "unit": "mg/kg"}]}
{"smiles": "CCCCCCCCCCCCCCCCN(C)C", "note": "[N,N-Dimethyl-1-hexadecanamine]", "values": [{"measurement": "LD50", "setting": "oral, gavage", "value": 1020, "unit": "mg/kg"}, {"measurement": "LD50", "setting": "oral, gavage, Sprague-Dawley", "value": "> 2000", "unit": "mg/kg"}]}
{"smiles": "CC(C)(C)c1cc(C(C)(C)C)c(O)c(C(C)(C)C)c1", "note": "[2,4,6-Tris(tert-butyl)phenol]", "values": [{"measurement": "LD50", "setting": "oral, Wistar", "value": "1610 mg/kg and 1670 mg/kg"}, {"measurement": "NOAEL", "setting": "chronic, duration: 24 months, oral, diet, Wistar", "value": 2.34, "unit": "mg/kg-day"}]}
{"smiles": "CC(=O)C(N=Nc1ccc(-c2ccc(N=NC(C(C)=O)C(=O)Nc3ccccc3)c(Cl)c2)cc1Cl)C(=O)Nc1ccccc1", "note": "(stereo not given) [C.I. Pigment Yellow 12]", "values": [{"measurement": "NOAEL", "setting": "reproduction developmental, oral, gavage, Wistar, generation: F0", "value": 1000, "unit": "mg/kg-day"}, {"measurement": "NOAEL", "setting": "reproduction developmental, oral, gavage, Wistar, generation: F1", "value": 1000, "unit": "mg/kg-day"}]}
{"smiles": "Cc1ccc(S(=O)(=O)O)cc1", "note": "[4-Methylbenzenesulfonic acid]", "values": [{"measurement": "LD50", "setting": "oral, Wistar", "value": 1410, "unit": "mg/kg"}, {"measurement": "NOAEL", "setting": "short-term, duration: 28 days, oral, Wistar", "value": "> 500", "unit": "mg/kg-day"}]}
{"smiles": "c1ccc(-c2cccc(-c3ccccc3)c2)cc1", "note": "[1,1':3',1''-Terphenyl]", "values": [{"measurement": "LD50", "setting": "oral, gavage, Sprague-Dawley", "value": 2400, "unit": "mg/kg"}, {"measurement": "LOAEL (% diet)", "setting": "short-term, duration: 14 days, oral, diet, Wistar", "value": 0.2}]}
{"smiles": "CC(C)C(=O)OCC(C)(C)C(OC(=O)c1ccccc1C(=O)OCc1ccccc1)C(C)C", "note": "(stereo not given)", "values": [{"measurement": "LD50", "setting": "oral, gavage, Sprague-Dawley", "value": "> 18500", "unit": "mg/kg"}]}
{"smiles": "CCCCCCCCCCCCCCCCCC(=O)[O-].[Li+]", "note": "[Lithium octadecanoate]", "values": [{"measurement": "LC50", "setting": "oral", "value": "≥ 5000 mg/kg and ≤ 15000 mg/kg"}]}
{"smiles": "CC(C)CC(C)OP(=S)([S-])OC(C)CC(C)C.CC(C)CC(C)OP(=S)([S-])OC(C)CC(C)C.[Zn+2]", "note": "(stereo not given)", "values": [{"measurement": "LD50", "setting": "oral, gavage, Sprague-Dawley", "value": "≥ 2000 mg/kg and ≤ 5000 mg/kg"}]}
{"smiles": "O=C1OCCO1", "note": "[1,3-Dioxolan-2-one]", "values": [{"measurement": "LD50", "setting": "dermal, Wistar", "value": "> 2000", "unit": "mg/kg"}, {"measurement": "LD50", "setting": "oral, Sprague-Dawley", "value": "> 5000", "unit": "mg/kg"}, {"measurement": "NOAEL", "setting": "reproduction developmental, duration: 9 days, oral, gavage, F, Sprague-Dawley", "value": "1500 mg/kg-day and 750 mg/kg-day"}]}
{"smiles": "c1ccc(Oc2ccccc2)cc1", "note": "[Diphenyl oxide]", "values": [{"measurement": "LD50", "setting": "oral, gavage, Sprague-Dawley", "value": 2450, "unit": "mg/kg"}, {"measurement": "NOAEL", "setting": "developmental, duration: 10 days, oral, gavage, Sprague-Dawley", "value": "≥ 500", "unit": "mg/kg-day"}, {"measurement": "NOAEL", "setting": "reproduction developmental, duration: 10 days, oral, gavage, F, Sprague-Dawley", "value": "≥ 50", "unit": "mg/kg-day"}, {"measurement": "NOAEL", "setting": "subchronic, duration: 13 weeks, oral, diet, Sprague-Dawley", "value": "> 480", "unit": "mg/kg-day"}]}
{"smiles": "c1ccc(-c2cccc(-c3ccccc3)c2)cc1", "note": "[Terphenyl]", "values": [{"measurement": "LC50", "setting": "oral, gavage, Sprague-Dawley", "value": "> 5000", "unit": "mg/kg"}]}
